Assay results from the supplement of paper PMC10307832.

Columns and labels:
Test in all cases: relative viability (nuclei count vs DMSO), 5 days (fraction); higher = more cells survive
[1] = compound: CC1=CC(=NN1)NC2=CC(=NC(=N2)/C=C/C3=CC=CC=C3)N4CCN(CC4)C + NC(=O)Nc1cc(-c2cccc(F)c2)sc1C(=O)N[C@H]1CCCNC1 [AZD7762] (partner 0.2 µM)
In short: (§1)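 Relative viability divides the nuclei count in treated wells by that in vehicle wells. Lung cancer cell lines were seeded in 1536-well plates, dosed by pin tool the next day, and fixed and stained after 5 days in one step with final 0.05% Triton X-100, 1% formaldehyde and 1 ug/ml Hoechst. Dosing was a single drug or a fixed anchor-drug dose plus five library-drug doses (not always all listed) in √10 steps, and values are medians of duplicate plates imaged at 4×.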

[2] = compound: CC1=CC(=NN1)NC2=CC(=NC(=N2)/C=C/C3=CC=CC=C3)N4CCN(CC4)C + CS(=O)(=O)N1CCN(Cc2cc3nc(-c4cccc5[nH]ncc45)nc(N4CCOCC4)c3s2)CC1 [Pictilisib] (partner 1 µM)
In short: as §1

[3] = compound: CC1=CC(=NN1)NC2=CC(=NC(=N2)/C=C/C3=CC=CC=C3)N4CCN(CC4)C + Nc1ncn([C@H]2C[C@H](O)[C@@H](CO)O2)c(=O)n1 [Decitabine] (partner 2 µM)
In short: as §1

[4] = compound: COC1=CC(c2cc3ccccc3[nH]2)=N/C1=C\c1[nH]c(C)cc1C [Obatoclax] + COc1cccc2cc(-c3nc([C@H]4CC[C@H](C(=O)O)CC4)n4ncnc(N)c34)[nH]c12 [OSI-027] (partner 0.5 µM)
In short: as §1

NCI-H650
relative viability ([1]; first compound 0.08 µM): 1.26 | relative viability ([1]; first compound 0.253 µM): 1.02 | relative viability ([1]; first compound 0.8 µM): 1.29 | relative viability ([1]; first compound 2.53 µM): 0.736 | relative viability ([1]; first compound 8 µM): 0.187 | relative viability ([2]; first compound 0.08 µM): 0.763 | relative viability ([2]; first compound 0.253 µM): 0.92 | relative viability ([2]; first compound 0.8 µM): 0.93 | relative viability ([2]; first compound 2.53 µM): 0.719 | relative viability ([2]; first compound 8 µM): 0.183 | relative viability ([3]; first compound 0.08 µM): 0.314 | relative viability ([3]; first compound 0.253 µM): 0.318 | relative viability ([3]; first compound 0.8 µM): 0.287 | relative viability ([3]; first compound 2.53 µM): 0.246 | relative viability ([3]; first compound 8 µM): 0.157 | relative viability ([4]; first compound 0.01 µM): 0.568 | relative viability ([4]; first compound 0.03162 µM): 0.449 | relative viability ([4]; first compound 0.3162 µM): 0.419 | relative viability ([4]; first compound 1 µM): 0.274
